# Measurements published in US8563542B2 (Cyclacel Limited, priority 2007, dated 2013).
# Columns and labels:
# AA = biological target: T1, AA (Homo sapiens, UniProt O14965); test: AA IC50 (Table 1; no method given); format: biochemical; details: Table 2, AurA IC50; class symbols; read-out: AurA IC50
# T1 sequence (O14965 1-403): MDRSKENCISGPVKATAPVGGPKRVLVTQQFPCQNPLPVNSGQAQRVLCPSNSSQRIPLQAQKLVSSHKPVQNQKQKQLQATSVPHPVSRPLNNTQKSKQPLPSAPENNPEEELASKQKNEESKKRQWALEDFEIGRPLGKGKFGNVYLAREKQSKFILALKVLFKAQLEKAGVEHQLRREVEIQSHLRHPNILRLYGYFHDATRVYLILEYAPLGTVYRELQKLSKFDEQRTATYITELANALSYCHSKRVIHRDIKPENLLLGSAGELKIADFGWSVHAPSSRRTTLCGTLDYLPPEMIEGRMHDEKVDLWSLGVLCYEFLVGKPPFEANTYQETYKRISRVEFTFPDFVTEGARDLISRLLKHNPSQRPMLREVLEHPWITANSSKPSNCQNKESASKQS
# PLK1 = PLK1 (Homo sapiens, UniProt P53350); test: PLK1 protein kinase assay (CDC25C phosphorylation, [γ-32P]-ATP); format: biochemical; details: Table 2, PLK1 IC50; class symbols; read-out: PLK1 IC50
# Sequence of PLK1 (P53350 whole entry): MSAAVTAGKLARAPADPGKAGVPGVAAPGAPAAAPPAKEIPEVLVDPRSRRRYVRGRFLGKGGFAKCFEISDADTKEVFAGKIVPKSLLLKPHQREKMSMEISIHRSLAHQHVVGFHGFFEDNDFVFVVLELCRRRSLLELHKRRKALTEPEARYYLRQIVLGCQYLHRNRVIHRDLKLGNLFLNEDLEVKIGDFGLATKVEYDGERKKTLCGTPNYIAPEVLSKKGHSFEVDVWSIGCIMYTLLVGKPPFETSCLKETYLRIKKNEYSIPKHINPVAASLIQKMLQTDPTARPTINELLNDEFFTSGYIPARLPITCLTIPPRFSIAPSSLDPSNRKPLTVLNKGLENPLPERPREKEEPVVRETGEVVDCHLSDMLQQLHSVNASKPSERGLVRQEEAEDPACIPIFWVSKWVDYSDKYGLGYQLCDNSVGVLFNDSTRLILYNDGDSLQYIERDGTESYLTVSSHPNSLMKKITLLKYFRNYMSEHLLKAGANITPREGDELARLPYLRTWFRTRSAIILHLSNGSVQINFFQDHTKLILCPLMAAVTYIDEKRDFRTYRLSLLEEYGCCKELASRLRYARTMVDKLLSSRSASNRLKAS
SMILES,IC50 (AA) [µM],IC50 (PLK1) [µM]
"CN1C(=O)CCN(C2CCCC2)c2nc(Nc3ccc(S(=O)(=O)NCc4ccccc4)cc3)ncc21 [compound 93, N-Benzyl-4-(9-cyclopentyl-5-methyl-6-oxo-6,7,8,9-tetrahydro-5H-pyrimido[4,5-b][1,4]diazepin-2-ylamino)-benzenesulfonamide]",< 0.1,< 10
"CNS(=O)(=O)c1ccc(Nc2ncc3c(n2)N(C2CCCC2)CCC(=O)N3C)cc1 [compound 96, 4-(9-Cyclopentyl-5-methyl-6-oxo-6,7,8,9-tetrahydro-5H-pyrimido[4,5-b][1,4]diazepin-2-ylamino)-N-methyl-benzenesulfonamide]",< 0.1,< 10
"CC(=O)N(C)S(=O)(=O)c1ccc(Nc2ncc3c(n2)N(C2CCCC2)CCC(=O)N3C)cc1 [compound 97, N-Acetyl-4-(9-cyclopentyl-5-methyl-6-oxo-6,7,8,9-tetrahydro-5H-pyrimido[4,5-b][1,4]diazepin-2-ylamino)-N-methyl-benzenesulfonamide]",< 0.1,< 10
"CN1CCC(NS(=O)(=O)c2cccc(Nc3ncc4c(n3)N(C3CCCC3)CCC(=O)N4C)c2)CC1 [compound 103, 3-(9-Cyclopentyl-5-methyl-6-oxo-6,7,8,9-tetrahydro-5H-pyrimido[4,5-b][1,4]diazepin-2-ylamino)-N-(1-methyl-piperidin-4-yl)-benzenesulfonamide]",< 1,< 10
"COCCNS(=O)(=O)c1ccc(Nc2ncc3c(n2)N(C2CCCC2)CCC(=O)N3C)cc1 [compound 104, 4-(9-Cyclopentyl-5-methyl-6-oxo-6,7,8,9-tetrahydro-5H-pyrimido[4,5-b][1,4]diazepin-2-ylamino)-N-(2-methoxy-ethyl)-benzenesulfonamide]",< 0.1,< 10
"COCCNS(=O)(=O)c1cccc(Nc2ncc3c(n2)N(C2CCCC2)CCC(=O)N3C)c1 [compound 108, 3-(9-Cyclopentyl-5-methyl-6-oxo-6,7,8,9-tetrahydro-5H-pyrimido[4,5-b][1,4]diazepin-2-ylamino)-N-(2-methoxy-ethyl)-benzenesulfonamide]",< 1,< 10
"CN1C(=O)CCN(C2CCCC2)c2nc(Nc3cccc(S(=O)(=O)N4CCCC4)c3)ncc21 [compound 109, 9-Cyclopentyl-5-methyl-2-[3-(pyrrolidine-1-sulfonyl)-phenylamino]-5,7,8,9-tetrahydro-pyrimido[4,5-b][1,4]diazepin-6-one]",< 1,< 1
"CN1C(=O)CCN(C2CCCC2)c2nc(Nc3cccc(S(=O)(=O)NCc4ccccc4)c3)ncc21 [compound 110, N-Benzyl-3-(9-cyclopentyl-5-methyl-6-oxo-6,7,8,9-tetrahydro-5H-pyrimido[4,5-b][1,4]diazepin-2-ylamino)-benzenesulfonamide]",< 1,< 10
"CC(C)N1CCC(=O)N(C)c2cnc(Nc3ccc4c(c3)CS(=O)(=O)C4)nc21 [compound 115, 2-(2,2-Dioxo-2,3-dihydro-1H-2lambda*6*- benzo[c]thiophen-5-ylamino)-9-isopropyl-5-methyl-5,7,8,9-tetrahydro-pyrimido[4,5-b][1,4]diazepin-6-one]",< 0.1,< 10
"CN1C(=O)C2(CCC2)CN(C2CCCC2)c2nc(Nc3ccc4c(c3)CS(=O)(=O)C4)ncc21 [compound 117, (9-Cyclopentyl-2-(2,2-dioxo-2,3-dihydro-1H-2lambda*6*-benzo[c]thiophen-5-ylamino)5-methyl-6-oxo-6,7,8,9-tetrahydro-5H-spiro[pyrimido[4,5-b][1,4]diazepin-3,1′-cyclobutane+]",< 1,< 1
"C=CCN1CCC(=O)N(C)c2cnc(Nc3ccc4c(c3)CS(=O)(=O)C4)nc21 [compound 119, 9-Allyl-2-(2,2-dioxo-2,3-dihydro-1H-2lambda*6*-benzo[c]thiophen-5-ylamino)-5-methyl-5,7,8,9-tetrahydro-pyrimido[4,5-b][1,4]diazepin-6-one]",< 0.1,< 10
"CN1C(=O)CCN(C2CCCC2)c2nc(Nc3ccc(Cl)cc3)ncc21 [compound 123, 2-(4-Chloro-phenylamino)-9-cyclopentyl-5-methyl-5,7,8,9-tetrahydro-pyrimido[4,5-b][1,4]diazepin-6-one]",< 1,< 1
"CN1C(=O)CCN(C2CCCC2)c2nc(NCc3ccco3)ncc21 [compound 124, 9-Cyclopentyl-2-[(furan-2-ylmethyl)-amino]-5-methyl-5,7,8,9-tetrahydro-pyrimido[4,5-b][1,4]diazepin-6-one]",< 10,< 10
"Cc1cc2cc(Nc3ncc4c(n3)N(C3CCCC3)CCC(=O)N4C)ccc2[nH]1 [compound 125, 9-Cyclopentyl-5-methyl-2-(2-methyl-1H-indol-5-ylamino)-5,7,8,9-tetrahydro-pyrimido[4,5-b][1,4]diazepin-6-one]",< 0.1,< 1
"CN1C(=O)CCN(C2CCCC2)c2nc(NCc3cccc4c3OCCO4)ncc21 [compound 128, 9-Cyclopentyl-2-[(2,3-dihydro-benzo[1,4]dioxin-5-ylmethyl)-amino]-5-methyl-5,7,8,9-tetrahydro-pyrimido[4,5-b][1,4]diazepin-6-one]",< 10,< 1
"CN1C(=O)CCN(C2CCCC2)c2nc(Nc3ccc4cc[nH]c4c3)ncc21 [compound 130, 9-Cyclopentyl-2-(1H-indo1-6-ylamino)-5-methyl-5,7,8,9-tetrahydro-pyrimido[4,5-b][1,4]diazepin-6-one]",< 1,< 10
"CN1C(=O)CCN(C2CCCC2)c2nc(NCc3ccc(-c4csnn4)cc3)ncc21 [compound 132, 9-Cyclopentyl-5-methyl-2-(4-[1,2,3]thiadiazol-4-yl-benzylamino)-5,7,8,9-tetrahydro-pyrimido[4,5-b][1,4]diazepin-6-one]",< 10,< 10
"Cc1cccc(Nc2ncc3c(n2)N(C2CCCC2)CCC(=O)N3C)c1 [compound 137, 9-Cyclopentyl-5-methyl-2-m-tolylamino-5,7,8,9-tetrahydro-pyrimido[4,5-b][1,4]diazepin-6-one]",< 0.1,< 10
"COc1cccc(Nc2ncc3c(n2)N(C2CCCC2)CCC(=O)N3C)c1 [compound 138, 9-Cyclopentyl-2-(3-methoxy-phenylamino)-5-methyl-5,7.8,9-tetrahydro-pyrimido[4,5-b][1,4]diazepin-6-one]",< 1,< 10
"CN1C(=O)CCN(C2CCCC2)c2nc(Nc3ccc4[nH]ncc4c3)ncc21 [compound 139, 9-Cyclopentyl-2-(1H-indazol-5-ylamino)-5-methyl-5,7,8,9-tetrahydro-pyrimido[4,5-b][1,4]diazepin-6-one]",< 0.1,< 1
"Cc1c(Nc2ncc3c(n2)N(C2CCCC2)CCC(=O)N3C)cccc1C(=O)NC1CCN(C)CC1 [compound 140, 3-(9-Cyclopentyl-5-methyl-6-oxo-6,7,8,9-tetrahydro-5H-pyrimido[4,5-b][1,4]diazepin-2-ylamino)-2-methyl-N-(1-methyl-piperidin-4-yl)-benzamide]",< 10,< 10
CN1C(=O)CCN(C2CCCC2)c2nc(Nc3cccc(S(=O)(=O)N4CCNCC4)c3)ncc21 [compound 146],< 10,< 10
"COc1cc(C(=O)NCCCCO)ccc1Nc1ncc2c(n1)N(C1CCCC1)CCC(=O)N2C [compound 151, 4-(9-Cyclopentyl-5-methyl-6-oxo-6,7,8,9-tetrahydro-5H-pyrimido[4,5-b][1,4]diazepin-2-ylamino)-N-(4-hydroxy-butyl)-3-methoxy-benzamide]",< 10,< 1
"CN1C(=O)CCN(C2CCCC2)c2nc(Nc3ccc(CCC(=O)O)cc3)ncc21 [compound 170, 3-[4-(9-Cyclopentyl-5-methyl-6-oxo-6,7,8,9-tetrahydro-5H-pyrimido[4,5-b][1,4]diazepin-2-ylamino)-phenyl]-propionic acid]",< 0.1,< 10
"CC(=O)Nc1ccc(Nc2ncc3c(n2)N(C2CCCC2)CCC(=O)N3C)cc1 [compound 171, N-[4-(9-Cyclopentyl-5-methyl-6-oxo-6,7,8,9-tetrahydro-5H-pyrimido[4,5-b][1,4]diazepin-2-ylamino)-phenyl]-acetamide]",< 0.1,< 10
"CN1C(=O)CCN(C2CCCC2)c2nc(Nc3ccc(CC(=O)O)cc3)ncc21 [compound 172, [4-(9-Cyclopentyl-5-methyl-6-oxo-6,7,8,9-tetrahydro-5H-pyrimido[4,5-b][1,4]diazepin-2-ylamino)-phenyl]-acetic acid]",< 0.1,< 10
"CN1C(=O)CCN(C2CCCC2)c2nc(Nc3ccc4c(c3)CC(=O)N4)ncc21 [compound 173, 9-Cyclopentyl-5-methyl-2-(2-oxo-2,3-dihydro-1H-indo1-5-ylamino)-5,7,8,9-tetrahydro-pyrimido[4,5-b][1,4]diazepin-6-one]",< 0.1,< 10
"Cc1cc(C(=O)O)ccc1Nc1ncc2c(n1)N(C1CCCC1)CCC(=O)N2C [compound 174, 4-(9-Cyclopentyl-5-methyl-6-oxo-6,7,8,9-tetrahydro-5H-pyrimido[4,5-b][1,4]diazepin-2-ylamino)-3-methyl-benzoic acid]",< 10,< 1
